One test deals with Acetylcholinesterase (Homo sapiens, UniProt P22303). Kind of test: DRUGMATRIX: Acetylcholinesterase enzyme inhibition (substrate: acetylthiocholine). It is filed as cell-based, HEK293. The settings on record: hek293; Not Active = under 50% inhibition at 10 µM.
Test [1] in a line: DRUGMATRIX: GABAA, Chloride Channel, TBOB radioligand binding (ligand: [3H] TBOB). The class given is cell membranes, Rattus norvegicus, Wistar, Cerebral cortex, Membrane. The settings on record: Not Active = under 50% inhibition at 10 µM.
In test [2] the target is Tyrosine-protein kinase Lck (Homo sapiens, UniProt P06239). Nature of the test: DRUGMATRIX: Protein Tyrosine Kinase, LCK enzyme inhibition (substrate: Poly(Glu:Tyr)). It is filed as cell-based, Insect cells. The conditions noted are these: insect cells; Not Active = under 50% inhibition at 10 µM.
Test [3] addresses cGMP-specific 3',5'-cyclic phosphodiesterase (Homo sapiens, UniProt O76074). Nature of the test: DRUGMATRIX: Phosphodiesterase PDE5 enzyme inhibition (substrate: [3H]cGMP + cGMP). The class given is tissue-based, Platelet. The conditions noted are these: platelet; Not Active = under 50% inhibition at 10 µM.
In test [4] the target is T1, Muscarinic acetylcholine receptor M4 (Homo sapiens, UniProt P08173). Further: in other assays of this panel Not Active means under 50% inhibition at 10 µM.
T1 sequence (P08173 whole entry): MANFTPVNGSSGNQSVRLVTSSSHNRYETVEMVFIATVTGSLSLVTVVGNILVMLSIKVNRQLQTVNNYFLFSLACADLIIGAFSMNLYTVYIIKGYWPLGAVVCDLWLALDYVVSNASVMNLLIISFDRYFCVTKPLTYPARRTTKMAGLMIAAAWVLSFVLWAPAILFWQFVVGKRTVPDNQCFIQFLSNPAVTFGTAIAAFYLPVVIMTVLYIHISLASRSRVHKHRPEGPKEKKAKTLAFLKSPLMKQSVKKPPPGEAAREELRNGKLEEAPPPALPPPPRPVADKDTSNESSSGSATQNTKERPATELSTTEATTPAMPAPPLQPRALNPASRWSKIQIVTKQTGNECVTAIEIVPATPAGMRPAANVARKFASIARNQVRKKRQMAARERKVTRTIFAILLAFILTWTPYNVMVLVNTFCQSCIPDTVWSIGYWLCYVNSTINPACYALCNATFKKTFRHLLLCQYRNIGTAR
The class given is cell membranes, CHO-K1, Membrane.

Test [5] is described as follows: DRUGMATRIX: Imidazoline I2, Central radioligand binding (ligand: [3H] Idazoxan). It is filed as cell membranes, Rattus norvegicus, Wistar, Cerebral cortex, Membrane. The settings on record: Not Active = under 50% inhibition at 10 µM.

The source of these data is ChEMBL document CHEMBL1909046, “DrugMatrix in vitro pharmacology data”.

The term IC50 denotes the concentration that inhibits the measured activity by half. One may read the Ki as the equilibrium dissociation constant of an inhibitor or competing ligand from its target.

Chain of Acetylcholinesterase (P22303 whole entry): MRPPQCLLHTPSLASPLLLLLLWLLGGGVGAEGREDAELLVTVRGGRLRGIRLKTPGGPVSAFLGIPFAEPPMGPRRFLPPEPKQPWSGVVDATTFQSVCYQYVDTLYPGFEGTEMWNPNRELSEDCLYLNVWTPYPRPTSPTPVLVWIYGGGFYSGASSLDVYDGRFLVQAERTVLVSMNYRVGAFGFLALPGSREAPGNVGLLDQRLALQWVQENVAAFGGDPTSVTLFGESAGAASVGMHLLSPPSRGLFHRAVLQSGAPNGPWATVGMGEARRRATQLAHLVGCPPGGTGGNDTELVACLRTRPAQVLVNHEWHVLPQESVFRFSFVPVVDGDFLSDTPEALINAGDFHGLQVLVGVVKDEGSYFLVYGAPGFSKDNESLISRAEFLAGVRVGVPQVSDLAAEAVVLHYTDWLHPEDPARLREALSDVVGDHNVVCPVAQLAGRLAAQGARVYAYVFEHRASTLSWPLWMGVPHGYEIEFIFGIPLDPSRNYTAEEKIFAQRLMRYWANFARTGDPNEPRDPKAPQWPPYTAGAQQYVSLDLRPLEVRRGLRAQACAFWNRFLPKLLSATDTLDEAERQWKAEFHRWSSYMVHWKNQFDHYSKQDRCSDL
Chain of Tyrosine-protein kinase Lck (P06239 whole entry): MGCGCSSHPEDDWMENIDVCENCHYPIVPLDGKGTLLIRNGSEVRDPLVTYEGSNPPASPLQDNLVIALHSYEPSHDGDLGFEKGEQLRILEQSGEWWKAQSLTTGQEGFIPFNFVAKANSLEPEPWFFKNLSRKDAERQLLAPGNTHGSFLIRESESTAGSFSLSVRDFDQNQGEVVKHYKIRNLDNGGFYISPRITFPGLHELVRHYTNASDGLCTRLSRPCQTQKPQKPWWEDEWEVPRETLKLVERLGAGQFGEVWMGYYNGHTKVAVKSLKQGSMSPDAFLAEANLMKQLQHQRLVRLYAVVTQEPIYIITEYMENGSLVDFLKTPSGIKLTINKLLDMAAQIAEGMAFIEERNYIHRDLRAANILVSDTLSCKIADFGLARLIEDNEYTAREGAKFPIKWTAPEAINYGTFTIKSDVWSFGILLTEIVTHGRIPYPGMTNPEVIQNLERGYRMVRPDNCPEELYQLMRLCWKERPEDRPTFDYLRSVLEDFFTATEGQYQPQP

As to `CC[C@H](C)[C@@H](CO[C@@H](Cc1ccccc1)C(=O)N[C@@H](CCS(C)(=O)=O)C(=O)OC(C)C)NC[C@@H](N)CS`, the IC50 entry (against Acetylcholinesterase; in test [1]; in test [2]; in test [3]; in test [4] (cho-k1); in test [5]) was “Not Active” each time. The Ki result in test [1] and in test [5] was “Not Active” throughout.
As to `Nc1nc(N)c2nc(-c3ccccc3)c(N)nc2n1`, the IC50 result (against Acetylcholinesterase; in test [1]; in test [2]; in test [3]; in test [4] (cho-k1); in test [5]) was “Not Active” in each case. Also, the Ki result in test [1] and in test [5] was “Not Active” throughout.
As for `CCN(CC)C(=S)SSC(=S)N(CC)CC`, the IC50 entry (at Acetylcholinesterase; in test [1]; in test [2]; in test [3]; in test [4] (cho-k1); in test [5]) was “Not Active” in each case. In addition, the inhibition constant (Ki) entry in test [1] and in test [5] was “Not Active” each time.
On to `CN(C)CCC=C1c2ccccc2COc2ccccc21` [DOXEPIN], for which the IC50 result (against Acetylcholinesterase; in test [3]) was “Not Active” in each case. Also, the inhibition constant Ki entry in test [2] is “Not Active”.
With `O=C(c1ccccc1)c1ccc2n1CCC2C(=O)O` (centres undefined) [KETOROLAC], the 50% inhibitory concentration (IC50) result (on Acetylcholinesterase; in test [1]; in test [2]; in test [3]; in test [4] (cho-k1); in test [5]) was “Not Active” each time. For the same compound, the Ki result in test [1] and in test [5] was “Not Active” in each case.
For `CCOC(=O)C1=C(C)NC(C)=C(C(=O)OCC)C1c1ccccc1/C=C/C(=O)OC(C)(C)C` [LACIDIPINE], the IC50 entry (against Acetylcholinesterase; in test [1]; in test [2]; in test [3]; in test [4] (cho-k1); in test [5]) was “Not Active” each time. Also, the Ki entry in test [1] and in test [5] was “Not Active” in each case.
For `CC(O)C(=O)O` (centres undefined) [LACTIC ACID], the IC50 result (against Acetylcholinesterase; in test [1]; in test [2]; in test [3]; in test [4] (cho-k1); in test [5]) was “Not Active” each time. Moreover, the Ki result in test [1] and in test [5] was “Not Active” in each case.
In the case of `CC(C)(C)NC[C@H](O)COc1cccc2c1CCCC2=O` [LEVOBUNOLOL], the IC50 result (against Acetylcholinesterase; in test [1]; in test [2]; in test [3]; in test [4] (cho-k1); in test [5]) was “Not Active” each time. The inhibitory constant (Ki) entry in test [1] and in test [5] was “Not Active” in each case.
Regarding `CNCCCC12CCC(c3ccccc31)c1ccccc12` [MAPROTILINE], the concentration for half-maximal inhibition (IC50) entry against Acetylcholinesterase is “Not Active”; in test [2], “Not Active”; in test [3], “Not Active”; in test [4] (read-out: IC50), 413 nM. The Ki in test [4] (read-out: Ki) worked out at 58 nM.
`C[N+]1(C)[C@@H]2C[C@@H](OC(=O)[C@H](CO)c3ccccc3)C[C@H]1[C@@H]1O[C@@H]12.[Br-]` [METHSCOPOLAMINE BROMIDE]: the half-maximal inhibitory concentration (IC50) result (against Acetylcholinesterase; in test [1]; in test [2]; in test [3]; in test [5]) was “Not Active” each time. The Ki result in test [1] and in test [5] was “Not Active” throughout.
On to `Cc1cc2c(s1)Nc1ccccc1N=C2N1CCN(C)CC1` [OLANZAPINE], for which the IC50 result (at Acetylcholinesterase; in test [2]; in test [3]) was “Not Active” each time.
